The source made the active and inactive calls.
How the values were obtained:
[1] = biological target: T1, ATP-dependent translocase ABCB1 (Homo sapiens, UniProt P08183); test: inhibition of BCRP-mediated JC-1 efflux – Ig-MXP3 cells, flow cytometry, set 2, dose response (AID 504566); format: functional; settings: read-out: EC50_MICROM_;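 further: flow cytometry median green fluorescence of retained JC-1 dye; potency of efflux pump inhibition measured as rising substrate retention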
[2] = biological target: T1, ATP-dependent translocase ABCB1; test: P-gp JC-1 efflux blockade concentration-response – Jurkat-DNR cells, flow cytometry, set 2, dose response (AID 504569); format: functional; settings: read-out: EC50_MICROM_;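 further: potency of pump inhibitors that raise cellular JC-1 green fluorescence up to the nicardipine level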
[3] = biological target: Adenosylmethionine-8-amino-7-oxononanoate aminotransferase (Mycobacterium tuberculosis, UniProt P9WQ81); test: Mycobacterium tuberculosis BioA enzyme inhibitor Measured in Biochemical System Using Plate Reader - 2163-02_Inhibitor_Dose_CherryPick_Activity.; format: functional, Mycobacterium tuberculosis UT205
[4] = test system: Streptococcus sp. 'group A'; test: Streptococcus pyogenes SK(-)GAS viability under kanamycin – luminescence, BacTiterGlo, confirmation, counter-screen for streptokinase expression inhibitor project, dose response (AID 1900); format: functional, organism-based
[5] = biological target: Induced myeloid leukemia cell differentiation protein Mcl-1 (Homo sapiens, UniProt Q07820); format: functional
Streptococcus = test: GAS UMAA2166 growth inhibition – luminescence, BacTiterGlo, counter-screen for streptokinase expression inhibitor project, dose response (AID 1915); format: functional, organism-based;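 further: potency for reduction of bacterial viability or growth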
[6] = Luminescence Cell-Based Dose Retest to Confirm Inhibitors of Cancer Stem Cells. [Related pubchem assays (depositor defined):AID2717, AID2721]; format: functional; settings: Homo sapiens
[7] = biological target: DNA (cytosine-5)-methyltransferase 1 (Homo sapiens, UniProt P26358); test: inhibition of DNA methylation by DNMT1 – biochemical, fluorescent molecular beacon, confirmation (AID 602386); format: functional
[8] = potency of ADAM10 substrate cleavage blockers – biochemical, QFRET, dose response (AID 743254);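 further: ADAM10 enzyme with the DM2 quenched FRET peptide as substrate; EDANS fluorescence gain as the protease cuts the substrate; inhibitor potency against ADAM10 proteolytic activity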
[9] = biological target: Disintegrin and metalloproteinase domain-containing protein 17 (Homo sapiens, UniProt P78536); test: inhibition of ADAM17 substrate cleavage – biochemical, quenched FRET substrate, counter-screen for ADAM10 exosite inhibitor project, dose response (AID 743253)
[10] = biological target: T2, Low molecular weight phosphotyrosine protein phosphatase (Homo sapiens, UniProt P24666); format: functional; settings: read-out: IC50_Mean
T2 sequence (P24666 whole entry): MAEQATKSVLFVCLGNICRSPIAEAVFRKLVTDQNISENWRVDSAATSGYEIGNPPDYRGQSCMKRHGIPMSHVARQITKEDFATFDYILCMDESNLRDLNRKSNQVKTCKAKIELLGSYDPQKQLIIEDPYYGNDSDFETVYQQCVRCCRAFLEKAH

[11] = biological target: T2, Low molecular weight phosphotyrosine protein phosphatase; format: functional; settings: read-out: IC50_Mean; remark: listed apart in the source
[12] = bead-based luminescence quenchers, dual-tagged ARNT – biochemical, AlphaScreen, cherry-pick, artefact control for ARNT-TACC3 interaction inhibitor project, dose response (AID 651705); format: functional;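 further: AlphaScreen bead proximity signal that flags compounds interfering with the detection technology; potency reflects signal decrease which marks the compound as an assay artifact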
[13] = Luminescence Cell-Based Dose Confirmation HTS to Identify Activators of 5'UTR Stem-Loop Driven Alpha-Synuclein mRNA Translation in H4 Neuroglioblastoma Cells. [Related pubchem assays: 1829 (Project Summary), 1814 (Primary HTS)]; format: functional
[14] = Luminescence Cell-Based Dose Response HTS to Identify Activators of Luciferase Translation or Activity in H4 […] Cells. [Related pubchem assays: 1829 (Project Summary), 1814 (Primary HTS)]; format: functional
H4 = test: Luminescence Cell-Based Dose Response HTS to Identify Activators of 5'UTR Stem-Loop Driven Prion Protein mRNA Translation in H4 Neuroglioblastoma Cells. [Related pubchem assays: 1829 (Project Summary), 1814 (Primary HTS)]; format: functional; settings: Homo sapiens
[15] = viability loss in HeLa cells – cytotoxicity control for MgcRacGAP inhibitor project, dose response (AID 624300); format: functional
[16] = biological target: T3, Rac GTPase-activating protein 1 (Homo sapiens, UniProt Q9H0H5); test: blockers of MgcRacGAP-driven Rac1 GTP hydrolysis – biochemical, ADP Hunter fluorescence, primary and confirmatory, confirmation (AID 624330); format: functional
T3 sequence (Q9H0H5 whole entry): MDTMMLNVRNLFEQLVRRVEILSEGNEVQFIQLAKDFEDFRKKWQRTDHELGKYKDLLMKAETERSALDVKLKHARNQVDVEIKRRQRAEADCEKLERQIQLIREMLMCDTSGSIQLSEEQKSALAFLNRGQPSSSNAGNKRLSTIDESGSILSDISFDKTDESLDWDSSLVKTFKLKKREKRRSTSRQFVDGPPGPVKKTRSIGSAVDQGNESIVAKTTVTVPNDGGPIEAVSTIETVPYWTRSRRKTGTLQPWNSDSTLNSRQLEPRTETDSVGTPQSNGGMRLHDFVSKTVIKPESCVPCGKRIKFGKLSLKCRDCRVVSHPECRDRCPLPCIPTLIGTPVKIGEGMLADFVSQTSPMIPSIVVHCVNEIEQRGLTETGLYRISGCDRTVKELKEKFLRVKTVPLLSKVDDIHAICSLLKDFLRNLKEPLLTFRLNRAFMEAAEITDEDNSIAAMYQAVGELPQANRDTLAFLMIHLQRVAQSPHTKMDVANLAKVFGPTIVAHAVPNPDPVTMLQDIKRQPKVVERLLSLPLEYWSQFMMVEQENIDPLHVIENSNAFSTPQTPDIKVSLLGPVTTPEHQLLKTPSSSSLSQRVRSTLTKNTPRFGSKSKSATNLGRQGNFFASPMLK

[17] = Vero cell cytotoxicity, cytotoxicity control for M. tuberculosis inhibitor project, purified and synthesized samples, set 3 (AID 504684); format: functional

T1 sequence (P08183 whole entry): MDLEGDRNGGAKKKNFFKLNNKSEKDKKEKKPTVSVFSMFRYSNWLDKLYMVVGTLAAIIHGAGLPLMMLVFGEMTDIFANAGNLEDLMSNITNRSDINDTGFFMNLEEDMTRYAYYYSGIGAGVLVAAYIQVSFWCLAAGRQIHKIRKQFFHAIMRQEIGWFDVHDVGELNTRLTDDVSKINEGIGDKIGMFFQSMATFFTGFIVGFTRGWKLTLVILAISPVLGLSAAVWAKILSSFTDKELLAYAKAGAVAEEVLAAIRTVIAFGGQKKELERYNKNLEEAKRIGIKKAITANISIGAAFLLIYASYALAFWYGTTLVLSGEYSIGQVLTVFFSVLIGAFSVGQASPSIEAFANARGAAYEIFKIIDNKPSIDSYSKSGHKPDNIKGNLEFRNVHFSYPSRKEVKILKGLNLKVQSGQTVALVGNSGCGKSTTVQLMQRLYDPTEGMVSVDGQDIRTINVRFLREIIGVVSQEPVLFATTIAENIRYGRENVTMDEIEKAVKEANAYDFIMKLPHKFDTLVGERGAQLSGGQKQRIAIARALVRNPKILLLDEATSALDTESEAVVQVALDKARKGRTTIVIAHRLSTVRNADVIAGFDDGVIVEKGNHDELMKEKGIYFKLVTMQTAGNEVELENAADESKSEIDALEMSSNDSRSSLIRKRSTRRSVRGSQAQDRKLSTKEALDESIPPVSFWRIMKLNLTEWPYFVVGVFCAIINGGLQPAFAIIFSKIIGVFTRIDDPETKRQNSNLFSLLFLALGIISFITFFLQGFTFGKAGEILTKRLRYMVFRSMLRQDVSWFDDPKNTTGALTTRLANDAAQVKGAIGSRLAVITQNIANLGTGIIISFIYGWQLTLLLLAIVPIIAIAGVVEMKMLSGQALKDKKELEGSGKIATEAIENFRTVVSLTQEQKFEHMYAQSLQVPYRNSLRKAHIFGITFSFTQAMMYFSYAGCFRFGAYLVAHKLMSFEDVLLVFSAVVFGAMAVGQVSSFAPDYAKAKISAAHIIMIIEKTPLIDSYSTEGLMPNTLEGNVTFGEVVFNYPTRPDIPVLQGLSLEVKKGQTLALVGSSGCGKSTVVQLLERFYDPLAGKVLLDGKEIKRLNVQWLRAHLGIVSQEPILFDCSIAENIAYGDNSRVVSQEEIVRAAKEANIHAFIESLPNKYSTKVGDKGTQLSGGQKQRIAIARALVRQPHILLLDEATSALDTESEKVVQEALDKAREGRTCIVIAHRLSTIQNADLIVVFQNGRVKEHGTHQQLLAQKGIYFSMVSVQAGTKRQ
Disintegrin and metalloproteinase domain-containing protein 17, sequence (P78536 whole entry, the tested form may be a part): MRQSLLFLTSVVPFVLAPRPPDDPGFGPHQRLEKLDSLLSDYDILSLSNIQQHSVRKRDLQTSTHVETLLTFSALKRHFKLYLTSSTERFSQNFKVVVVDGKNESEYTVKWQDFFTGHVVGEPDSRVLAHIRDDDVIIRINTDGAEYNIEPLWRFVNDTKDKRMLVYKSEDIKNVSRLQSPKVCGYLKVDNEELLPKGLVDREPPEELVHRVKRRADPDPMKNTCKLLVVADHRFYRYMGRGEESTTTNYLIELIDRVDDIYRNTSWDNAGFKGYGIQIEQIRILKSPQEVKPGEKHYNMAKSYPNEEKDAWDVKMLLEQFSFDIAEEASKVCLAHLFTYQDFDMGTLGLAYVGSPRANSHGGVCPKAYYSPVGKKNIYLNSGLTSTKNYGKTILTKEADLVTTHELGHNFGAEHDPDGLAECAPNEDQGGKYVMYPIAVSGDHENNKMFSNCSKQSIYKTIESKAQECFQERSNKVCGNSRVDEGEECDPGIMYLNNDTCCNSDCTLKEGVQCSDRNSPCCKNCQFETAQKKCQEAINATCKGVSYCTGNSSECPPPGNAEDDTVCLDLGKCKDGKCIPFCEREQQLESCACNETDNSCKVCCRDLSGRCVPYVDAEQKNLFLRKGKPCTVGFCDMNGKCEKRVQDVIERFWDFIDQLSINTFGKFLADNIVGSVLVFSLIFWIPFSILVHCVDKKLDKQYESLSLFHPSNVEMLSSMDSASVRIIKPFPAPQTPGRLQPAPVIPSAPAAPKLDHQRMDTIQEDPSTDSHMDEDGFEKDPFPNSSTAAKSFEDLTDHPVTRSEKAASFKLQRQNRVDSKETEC
DNA (cytosine-5)-methyltransferase 1, sequence (P26358 whole entry): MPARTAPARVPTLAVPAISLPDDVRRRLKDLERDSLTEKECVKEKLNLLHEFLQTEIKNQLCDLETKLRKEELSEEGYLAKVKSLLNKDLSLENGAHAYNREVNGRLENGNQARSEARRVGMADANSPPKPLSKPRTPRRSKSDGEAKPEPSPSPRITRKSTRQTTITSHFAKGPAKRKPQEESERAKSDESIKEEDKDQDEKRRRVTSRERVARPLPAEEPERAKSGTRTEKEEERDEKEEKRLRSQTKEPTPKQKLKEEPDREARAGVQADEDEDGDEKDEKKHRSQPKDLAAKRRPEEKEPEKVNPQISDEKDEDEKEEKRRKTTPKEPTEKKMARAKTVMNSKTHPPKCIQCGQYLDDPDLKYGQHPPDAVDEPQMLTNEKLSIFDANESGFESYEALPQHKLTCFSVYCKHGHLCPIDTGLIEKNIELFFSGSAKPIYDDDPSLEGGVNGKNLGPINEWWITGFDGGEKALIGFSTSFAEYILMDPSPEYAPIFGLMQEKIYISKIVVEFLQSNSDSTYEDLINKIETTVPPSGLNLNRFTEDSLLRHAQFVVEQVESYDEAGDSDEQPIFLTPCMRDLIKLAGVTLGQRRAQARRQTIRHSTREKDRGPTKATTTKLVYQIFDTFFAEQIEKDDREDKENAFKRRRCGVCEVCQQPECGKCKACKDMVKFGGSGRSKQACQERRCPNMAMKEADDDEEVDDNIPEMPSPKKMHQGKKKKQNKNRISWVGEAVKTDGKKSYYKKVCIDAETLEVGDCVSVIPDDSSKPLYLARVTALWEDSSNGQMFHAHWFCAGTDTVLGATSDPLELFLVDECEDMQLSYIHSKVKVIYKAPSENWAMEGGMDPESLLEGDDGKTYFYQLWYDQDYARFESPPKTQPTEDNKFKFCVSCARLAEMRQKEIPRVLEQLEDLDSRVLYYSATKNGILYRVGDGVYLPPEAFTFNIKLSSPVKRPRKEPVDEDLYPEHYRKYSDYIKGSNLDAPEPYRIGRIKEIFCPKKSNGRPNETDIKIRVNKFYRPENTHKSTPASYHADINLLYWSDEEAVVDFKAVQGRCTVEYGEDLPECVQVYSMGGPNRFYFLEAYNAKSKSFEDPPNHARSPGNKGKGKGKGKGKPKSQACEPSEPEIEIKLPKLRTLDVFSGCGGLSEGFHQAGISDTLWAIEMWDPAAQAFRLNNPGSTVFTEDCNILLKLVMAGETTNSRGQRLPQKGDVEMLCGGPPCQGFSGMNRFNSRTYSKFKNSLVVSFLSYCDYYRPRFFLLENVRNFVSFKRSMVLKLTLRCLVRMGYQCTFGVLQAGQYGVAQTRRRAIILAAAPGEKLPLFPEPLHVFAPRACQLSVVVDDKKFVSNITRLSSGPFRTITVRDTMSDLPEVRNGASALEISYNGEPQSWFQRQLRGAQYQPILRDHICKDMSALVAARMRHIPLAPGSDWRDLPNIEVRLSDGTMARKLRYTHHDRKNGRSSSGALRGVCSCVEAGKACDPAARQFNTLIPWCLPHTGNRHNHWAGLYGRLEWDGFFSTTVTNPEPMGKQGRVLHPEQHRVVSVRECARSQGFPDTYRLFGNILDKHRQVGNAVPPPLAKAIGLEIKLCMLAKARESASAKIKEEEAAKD
Adenosylmethionine-8-amino-7-oxononanoate aminotransferase, sequence (P9WQ81 whole entry): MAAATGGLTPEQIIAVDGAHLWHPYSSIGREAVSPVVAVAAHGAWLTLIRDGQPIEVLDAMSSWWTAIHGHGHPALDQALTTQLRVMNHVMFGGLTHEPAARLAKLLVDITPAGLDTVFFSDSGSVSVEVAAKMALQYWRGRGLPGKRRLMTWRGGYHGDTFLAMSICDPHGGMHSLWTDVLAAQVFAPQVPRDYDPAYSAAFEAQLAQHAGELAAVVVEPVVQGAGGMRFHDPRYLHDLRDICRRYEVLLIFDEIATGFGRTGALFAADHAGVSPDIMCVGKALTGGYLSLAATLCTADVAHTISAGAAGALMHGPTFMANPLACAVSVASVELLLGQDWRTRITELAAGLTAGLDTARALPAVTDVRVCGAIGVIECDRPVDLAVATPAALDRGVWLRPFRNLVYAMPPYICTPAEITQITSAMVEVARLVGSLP
Induced myeloid leukemia cell differentiation protein Mcl-1, sequence (Q07820 whole entry): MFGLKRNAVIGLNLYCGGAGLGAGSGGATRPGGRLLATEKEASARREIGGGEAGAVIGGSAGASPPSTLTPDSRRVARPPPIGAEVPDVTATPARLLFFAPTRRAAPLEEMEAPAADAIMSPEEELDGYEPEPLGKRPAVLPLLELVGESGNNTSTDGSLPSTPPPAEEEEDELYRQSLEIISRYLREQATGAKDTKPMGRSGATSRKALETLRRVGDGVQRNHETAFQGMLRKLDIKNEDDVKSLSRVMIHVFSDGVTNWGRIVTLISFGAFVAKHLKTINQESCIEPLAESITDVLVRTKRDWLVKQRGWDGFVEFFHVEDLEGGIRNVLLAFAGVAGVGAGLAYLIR

For `O=C(c1ccoc1)N1CCN(c2cc(-c3ccccc3F)nc3cc(-c4cccc(Cl)c4)nn23)CC1`, the EC50 [1] was 1.59 µM (active) and the EC50 [2] was 5.75 µM (active).
With `CC(=O)c1ccc(NC(=O)COC(=O)Cc2ccsc2)cc1` the AC50 [3] was 6.97 µM (active).
With `Cc1ccc(C2C(/C=C3/SC(=S)NC3=O)=C(c3cccs3)Oc3ccccc32)cc1` (centres undefined) the EC50 [4] was 0.649 µM (active), the IC50 [5] was 3.63 µM (active) and the EC50 (Streptococcus) was 1.11 µM (active). For the same compound, the AC50 [6] was 0.874 µM (active), the IC50 [7] was 3.74 µM (active) and the IC50 [8] was 16.7 µM (inactive). For the same compound, the IC50 [9] was 33.7 µM (inactive).
With `CCc1nc(N)nc(N)c1-c1ccc(Cl)c(N=[N+]=[N-])c1` the IC50 [10] was 24.2 µM (inactive) and the IC50 [11] was 14.3 µM (active).
In the case of `O=C(COc1ccccc1)Nc1nnc(-c2ccco2)o1`, the AC50 [12] is reported as 95 µM (active).
With `COc1ccc(/C=N/Nc2ncnc3sc4c(c23)CCCC4)cc1O` the EC50 [13] was 13.4 µM (active), the EC50 [14] was 6.72 µM (active) and the EC50 (H4) was 8.38 µM (active). For the same compound, the CC50 [15] was 70.4 µM (active) and the IC50 [16] was 56.1 µM (active).
In the case of `O=C(CSc1nccc(O)n1)Nc1ccc(Oc2ccccc2)cc1`, the CC50 [17] is reported as > 100 µM (active).
